Reference: ChEMBL document CHEMBL3991601, “The target landscape of clinical kinase drugs” (Science, 2017)
The source made the active and inactive calls.

Legend:
[1] = molecular target: Mitogen-activated protein kinase 3 (Homo sapiens, UniProt P27361)
[2] = molecular target: T1, Structural maintenance of chromosomes protein 1A (Homo sapiens, UniProt Q14683)
T1 sequence (Q14683 whole entry): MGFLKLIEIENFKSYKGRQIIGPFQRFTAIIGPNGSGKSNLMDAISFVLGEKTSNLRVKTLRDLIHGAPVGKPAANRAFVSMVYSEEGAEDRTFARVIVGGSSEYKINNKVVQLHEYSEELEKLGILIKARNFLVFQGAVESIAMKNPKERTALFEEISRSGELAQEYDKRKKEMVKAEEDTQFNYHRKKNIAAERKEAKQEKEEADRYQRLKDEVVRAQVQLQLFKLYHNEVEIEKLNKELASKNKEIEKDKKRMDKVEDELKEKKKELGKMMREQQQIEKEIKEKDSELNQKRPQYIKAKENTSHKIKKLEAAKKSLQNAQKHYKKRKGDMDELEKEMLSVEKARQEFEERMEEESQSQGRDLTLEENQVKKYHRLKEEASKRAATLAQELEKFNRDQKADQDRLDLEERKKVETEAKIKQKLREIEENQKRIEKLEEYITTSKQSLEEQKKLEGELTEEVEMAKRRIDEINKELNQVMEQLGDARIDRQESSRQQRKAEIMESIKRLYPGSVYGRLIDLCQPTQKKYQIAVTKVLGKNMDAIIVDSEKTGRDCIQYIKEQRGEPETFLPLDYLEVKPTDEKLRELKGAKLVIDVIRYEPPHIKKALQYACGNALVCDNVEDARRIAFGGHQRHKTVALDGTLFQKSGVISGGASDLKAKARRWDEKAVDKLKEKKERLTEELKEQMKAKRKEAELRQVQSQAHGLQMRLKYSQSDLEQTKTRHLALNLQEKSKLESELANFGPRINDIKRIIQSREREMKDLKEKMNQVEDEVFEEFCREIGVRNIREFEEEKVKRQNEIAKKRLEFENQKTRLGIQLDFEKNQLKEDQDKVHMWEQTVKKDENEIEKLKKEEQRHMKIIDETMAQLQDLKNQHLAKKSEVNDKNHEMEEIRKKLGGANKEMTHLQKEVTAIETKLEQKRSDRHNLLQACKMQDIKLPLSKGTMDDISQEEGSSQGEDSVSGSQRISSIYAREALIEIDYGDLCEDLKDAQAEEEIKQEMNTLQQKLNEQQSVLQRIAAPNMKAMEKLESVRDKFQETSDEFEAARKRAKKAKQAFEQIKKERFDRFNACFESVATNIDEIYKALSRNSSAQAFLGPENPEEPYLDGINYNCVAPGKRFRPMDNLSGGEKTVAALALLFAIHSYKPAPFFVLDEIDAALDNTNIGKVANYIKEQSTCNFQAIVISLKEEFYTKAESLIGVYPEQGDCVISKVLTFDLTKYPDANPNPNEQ

[3] = molecular target: Serine/threonine-protein kinase PAK 2 (Homo sapiens, UniProt Q13177)
[4] = molecular target: T2, Acyl-CoA dehydrogenase family member 10 (Homo sapiens, UniProt Q6JQN1)
T2 sequence (Q6JQN1 whole entry): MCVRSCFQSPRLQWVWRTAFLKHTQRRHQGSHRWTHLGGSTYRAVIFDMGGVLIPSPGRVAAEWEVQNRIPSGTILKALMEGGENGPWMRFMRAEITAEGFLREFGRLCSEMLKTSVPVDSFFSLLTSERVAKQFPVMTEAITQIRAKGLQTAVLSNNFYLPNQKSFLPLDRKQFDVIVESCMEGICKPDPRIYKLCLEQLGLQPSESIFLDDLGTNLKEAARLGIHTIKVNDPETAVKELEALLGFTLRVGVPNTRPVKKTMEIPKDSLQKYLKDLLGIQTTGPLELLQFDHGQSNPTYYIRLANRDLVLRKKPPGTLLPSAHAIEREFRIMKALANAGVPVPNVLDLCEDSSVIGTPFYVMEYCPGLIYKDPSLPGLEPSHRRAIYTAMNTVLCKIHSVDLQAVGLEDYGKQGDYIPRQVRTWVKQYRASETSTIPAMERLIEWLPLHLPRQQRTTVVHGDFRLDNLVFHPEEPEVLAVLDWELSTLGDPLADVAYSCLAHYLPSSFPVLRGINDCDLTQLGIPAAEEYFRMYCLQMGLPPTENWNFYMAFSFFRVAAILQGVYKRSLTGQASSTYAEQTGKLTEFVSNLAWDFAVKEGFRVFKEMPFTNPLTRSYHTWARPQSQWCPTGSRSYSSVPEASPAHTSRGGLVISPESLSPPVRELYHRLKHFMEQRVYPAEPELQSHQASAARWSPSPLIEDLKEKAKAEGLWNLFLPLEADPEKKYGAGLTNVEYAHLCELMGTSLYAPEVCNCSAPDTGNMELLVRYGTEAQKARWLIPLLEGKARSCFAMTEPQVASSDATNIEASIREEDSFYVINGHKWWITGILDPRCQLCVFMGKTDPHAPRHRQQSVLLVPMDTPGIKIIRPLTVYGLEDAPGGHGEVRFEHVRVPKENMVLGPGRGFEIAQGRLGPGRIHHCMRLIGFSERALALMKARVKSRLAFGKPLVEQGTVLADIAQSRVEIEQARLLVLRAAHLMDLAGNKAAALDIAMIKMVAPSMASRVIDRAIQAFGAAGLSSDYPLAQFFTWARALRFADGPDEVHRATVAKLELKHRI

[5] = molecular target: Bone morphogenetic protein receptor type-1B (Homo sapiens, UniProt O00238)
TGF-beta receptor type-1 = molecular target: T3, TGF-beta receptor type-1 (Homo sapiens, UniProt P36897)
T3 sequence (P36897 whole entry): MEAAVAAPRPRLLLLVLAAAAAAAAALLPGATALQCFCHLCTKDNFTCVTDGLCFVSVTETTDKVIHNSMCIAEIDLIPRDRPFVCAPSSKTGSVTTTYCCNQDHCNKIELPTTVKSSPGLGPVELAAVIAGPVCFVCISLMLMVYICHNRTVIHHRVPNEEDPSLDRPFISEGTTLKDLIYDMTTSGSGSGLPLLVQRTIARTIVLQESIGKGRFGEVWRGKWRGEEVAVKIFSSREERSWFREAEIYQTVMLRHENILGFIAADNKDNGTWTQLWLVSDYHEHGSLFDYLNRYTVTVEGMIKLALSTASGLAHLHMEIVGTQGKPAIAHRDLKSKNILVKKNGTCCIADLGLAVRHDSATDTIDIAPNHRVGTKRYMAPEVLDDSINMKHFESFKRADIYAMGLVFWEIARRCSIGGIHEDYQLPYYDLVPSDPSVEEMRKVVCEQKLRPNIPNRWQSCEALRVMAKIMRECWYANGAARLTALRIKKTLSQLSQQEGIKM

[6] = molecular target: Ribosomal protein S6 kinase alpha-6 (Homo sapiens, UniProt Q9UK32)
[7] = molecular target: Insulin-like growth factor 1 receptor (Homo sapiens, UniProt P08069)
Further: in the data inactive means no Kd found up to 30 µM.

Ribosomal protein S6 kinase alpha-6, sequence (Q9UK32 whole entry): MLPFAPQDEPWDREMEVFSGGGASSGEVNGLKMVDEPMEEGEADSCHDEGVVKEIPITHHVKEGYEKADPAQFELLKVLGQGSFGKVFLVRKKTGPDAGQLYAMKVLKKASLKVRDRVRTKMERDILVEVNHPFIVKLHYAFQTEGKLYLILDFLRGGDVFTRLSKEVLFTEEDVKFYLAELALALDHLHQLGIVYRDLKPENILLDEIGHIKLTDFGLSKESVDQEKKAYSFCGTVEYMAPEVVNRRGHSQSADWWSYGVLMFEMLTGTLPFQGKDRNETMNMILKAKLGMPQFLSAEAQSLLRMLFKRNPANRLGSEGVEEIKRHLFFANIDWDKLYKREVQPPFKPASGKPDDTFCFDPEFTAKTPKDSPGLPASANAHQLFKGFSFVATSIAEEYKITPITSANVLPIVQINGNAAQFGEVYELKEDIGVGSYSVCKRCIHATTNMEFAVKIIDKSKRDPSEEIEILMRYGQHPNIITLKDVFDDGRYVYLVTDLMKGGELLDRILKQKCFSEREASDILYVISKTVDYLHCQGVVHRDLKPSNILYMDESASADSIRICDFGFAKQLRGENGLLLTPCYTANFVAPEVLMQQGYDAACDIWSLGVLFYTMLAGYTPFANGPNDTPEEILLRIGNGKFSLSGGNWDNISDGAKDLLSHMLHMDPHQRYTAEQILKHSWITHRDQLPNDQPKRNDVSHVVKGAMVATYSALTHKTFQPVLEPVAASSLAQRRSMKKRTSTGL
Serine/threonine-protein kinase PAK 2, sequence (Q13177 whole entry): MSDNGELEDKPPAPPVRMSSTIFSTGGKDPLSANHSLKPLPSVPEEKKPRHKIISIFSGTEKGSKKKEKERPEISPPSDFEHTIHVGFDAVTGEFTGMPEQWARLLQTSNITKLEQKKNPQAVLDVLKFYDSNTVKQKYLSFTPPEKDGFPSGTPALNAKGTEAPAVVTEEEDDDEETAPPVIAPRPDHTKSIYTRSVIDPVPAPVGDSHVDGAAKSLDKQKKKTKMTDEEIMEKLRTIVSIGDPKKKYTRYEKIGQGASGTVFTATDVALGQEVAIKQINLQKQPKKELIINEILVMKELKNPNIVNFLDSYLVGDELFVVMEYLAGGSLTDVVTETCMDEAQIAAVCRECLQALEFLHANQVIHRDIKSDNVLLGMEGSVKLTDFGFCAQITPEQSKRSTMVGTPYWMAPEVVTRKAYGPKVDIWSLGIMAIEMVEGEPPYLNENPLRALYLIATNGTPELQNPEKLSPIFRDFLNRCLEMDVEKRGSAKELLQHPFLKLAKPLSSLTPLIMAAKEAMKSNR
Bone morphogenetic protein receptor type-1B, sequence (O00238 whole entry): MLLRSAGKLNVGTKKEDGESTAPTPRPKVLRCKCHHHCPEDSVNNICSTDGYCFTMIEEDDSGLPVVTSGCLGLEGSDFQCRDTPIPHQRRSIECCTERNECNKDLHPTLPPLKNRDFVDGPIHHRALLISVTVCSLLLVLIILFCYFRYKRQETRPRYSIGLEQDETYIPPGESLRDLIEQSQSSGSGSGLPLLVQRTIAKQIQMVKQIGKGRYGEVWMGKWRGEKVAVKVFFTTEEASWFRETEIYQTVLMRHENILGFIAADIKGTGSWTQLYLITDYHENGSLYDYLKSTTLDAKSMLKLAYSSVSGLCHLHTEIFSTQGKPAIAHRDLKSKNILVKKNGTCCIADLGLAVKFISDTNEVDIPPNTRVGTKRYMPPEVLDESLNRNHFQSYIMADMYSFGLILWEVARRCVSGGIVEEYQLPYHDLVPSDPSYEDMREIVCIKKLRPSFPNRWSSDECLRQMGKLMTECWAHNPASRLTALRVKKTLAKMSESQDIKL
Insulin-like growth factor 1 receptor, sequence (P08069 31-736 limits assumed): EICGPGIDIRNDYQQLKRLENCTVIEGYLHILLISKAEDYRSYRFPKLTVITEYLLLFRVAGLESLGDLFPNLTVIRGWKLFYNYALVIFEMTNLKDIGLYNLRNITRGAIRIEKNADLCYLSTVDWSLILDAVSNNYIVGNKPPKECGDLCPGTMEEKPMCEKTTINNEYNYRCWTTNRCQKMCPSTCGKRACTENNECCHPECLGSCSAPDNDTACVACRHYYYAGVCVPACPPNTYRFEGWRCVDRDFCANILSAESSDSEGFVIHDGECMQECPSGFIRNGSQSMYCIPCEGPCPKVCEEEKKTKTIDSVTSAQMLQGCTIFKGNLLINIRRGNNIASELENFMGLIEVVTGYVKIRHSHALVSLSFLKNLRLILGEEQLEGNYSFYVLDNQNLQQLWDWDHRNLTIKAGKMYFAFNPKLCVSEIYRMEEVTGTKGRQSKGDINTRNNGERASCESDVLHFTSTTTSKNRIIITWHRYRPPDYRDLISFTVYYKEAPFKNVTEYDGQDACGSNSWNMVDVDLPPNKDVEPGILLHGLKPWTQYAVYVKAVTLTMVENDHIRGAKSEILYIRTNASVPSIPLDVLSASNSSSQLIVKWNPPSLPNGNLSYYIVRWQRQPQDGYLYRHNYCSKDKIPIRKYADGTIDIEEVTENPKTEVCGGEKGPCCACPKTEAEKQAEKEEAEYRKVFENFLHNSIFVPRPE
Insulin-like growth factor 1 receptor, sequence (P08069 741-1367 limits assumed): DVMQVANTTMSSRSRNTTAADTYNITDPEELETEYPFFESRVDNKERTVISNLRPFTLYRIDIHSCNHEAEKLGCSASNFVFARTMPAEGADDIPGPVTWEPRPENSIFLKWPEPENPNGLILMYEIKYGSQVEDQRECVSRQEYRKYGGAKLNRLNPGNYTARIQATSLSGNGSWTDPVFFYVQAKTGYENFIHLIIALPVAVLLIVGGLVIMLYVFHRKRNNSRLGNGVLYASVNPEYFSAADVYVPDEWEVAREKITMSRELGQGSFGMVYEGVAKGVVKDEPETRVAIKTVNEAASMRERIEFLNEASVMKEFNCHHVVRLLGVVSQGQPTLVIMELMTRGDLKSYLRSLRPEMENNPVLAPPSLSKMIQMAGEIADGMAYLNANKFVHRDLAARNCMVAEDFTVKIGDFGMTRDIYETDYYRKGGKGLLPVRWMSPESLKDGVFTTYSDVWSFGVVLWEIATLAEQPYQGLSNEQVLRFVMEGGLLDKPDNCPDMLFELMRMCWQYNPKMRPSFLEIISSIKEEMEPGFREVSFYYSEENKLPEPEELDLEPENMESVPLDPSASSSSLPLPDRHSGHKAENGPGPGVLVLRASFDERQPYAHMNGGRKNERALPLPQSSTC
Mitogen-activated protein kinase 3, sequence (P27361 whole entry): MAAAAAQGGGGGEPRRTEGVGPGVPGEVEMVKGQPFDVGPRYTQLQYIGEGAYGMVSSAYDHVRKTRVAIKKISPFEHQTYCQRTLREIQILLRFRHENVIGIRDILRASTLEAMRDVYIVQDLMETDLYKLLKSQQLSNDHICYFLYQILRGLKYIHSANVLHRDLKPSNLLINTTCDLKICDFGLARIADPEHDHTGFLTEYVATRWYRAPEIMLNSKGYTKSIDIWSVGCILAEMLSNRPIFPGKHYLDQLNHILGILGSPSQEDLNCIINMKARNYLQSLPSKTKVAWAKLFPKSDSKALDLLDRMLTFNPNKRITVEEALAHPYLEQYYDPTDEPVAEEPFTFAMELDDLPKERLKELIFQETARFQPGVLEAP

Row | Compound | Kd [1] | Kd [2] | Kd [3] | Kd [4] | Kd [5] | Kd (TGF-beta receptor type-1) | Kd [6] | Kd [7]
1 | CCc1cnn2c(NCc3ccc[n+]([O-])c3)cc(N3CCCC[C@H]3CCO)nc12 [DINACICLIB] | > 30 µM (inactive) | > 30 µM (inactive) | > 30 µM (inactive) | > 30 µM (inactive) | > 30 µM (inactive) | > 30 µM (inactive) | > 30 µM (inactive) | –
2 | Cn1ncc(Cl)c1-c1cc(C(=O)N[C@H](CN)Cc2cccc(F)c2)sc1Cl [AFURESERTIB] | > 30 µM (inactive) | > 30 µM (inactive) | > 30 µM (inactive) | – | > 30 µM (inactive) | > 30 µM (inactive) | > 30 µM (inactive) | > 30 µM (inactive)
3 | CC[C@H](Nc1ncnc2[nH]cnc12)c1nc2cccc(F)c2c(=O)n1-c1ccccc1 [IDELALISIB] | > 30 µM (inactive) | > 30 µM (inactive) | > 30 µM (inactive) | > 30 µM (inactive) | > 30 µM (inactive) | > 30 µM (inactive) | > 30 µM (inactive) | > 30 µM (inactive)
4 | O=C1NC(=O)/C(=C/c2ccc3nccc(-c4ccncc4)c3c2)S1 [GSK-1059615] | > 30 µM (inactive) | > 30 µM (inactive) | > 30 µM (inactive) | – | > 30 µM (inactive) | > 30 µM (inactive) | > 30 µM (inactive) | > 30 µM (inactive)
5 | OCCn1cc(-c2cnc3nnn(Cc4ccc5ncccc5c4)c3n2)cn1 [PF-04217903] | > 30 µM (inactive) | – | > 30 µM (inactive) | > 30 µM (inactive) | > 30 µM (inactive) | > 30 µM (inactive) | > 30 µM (inactive) | –
6 | CN1CCN(c2ccc3nc(-c4c(N)c5c(F)cccc5[nH]c4=O)[nH]c3c2)CC1 [DOVITINIB] | – | > 30 µM (inactive) | – | > 30 µM (inactive) | – | – | – | –
7 | Cc1cc(Nc2cc(N3CCN(C)CC3)nc(/C=C/c3ccccc3)n2)n[nH]1 [ENMD-2076] | > 30 µM (inactive) | > 30 µM (inactive) | > 30 µM (inactive) | > 30 µM (inactive) | > 30 µM (inactive) | > 30 µM (inactive) | – | –
8 | Cn1cc(-c2ccc(F)c(C(F)(F)F)c2)nc1C1CCN(c2ncnc3[nH]ncc23)CC1 [LY-2584702] | > 30 µM (inactive) | – | – | > 30 µM (inactive) | > 30 µM (inactive) | > 30 µM (inactive) | > 30 µM (inactive) | > 30 µM (inactive)
9 | CNC(=O)c1ccc(C)c(-n2c(C)cc(OCc3ccc(F)cc3F)c(Br)c2=O)c1 [PH-797804] | > 30 µM (inactive) | > 30 µM (inactive) | > 30 µM (inactive) | – | > 30 µM (inactive) | > 30 µM (inactive) | > 30 µM (inactive) | > 30 µM (inactive)
10 | CCN1CCN(Cc2ccc(-c3cc4c(N[C@H](C)c5ccccc5)ncnc4[nH]3)cc2)CC1 [AEE-788] | > 30 µM (inactive) | > 30 µM (inactive) | > 30 µM (inactive) | – | > 30 µM (inactive) | > 30 µM (inactive) | > 30 µM (inactive) | > 30 µM (inactive)
11 | CCn1c(-c2nonc2N)nc2c(C#CC(C)(C)O)ncc(OC[C@H]3CCCNC3)c21 [GSK-690693] | – | > 30 µM (inactive) | – | > 30 µM (inactive) | – | – | – | –
12 | O=C(Nc1cccc(Cl)c1)Nc1ncc(CCNc2ncnc3ccsc23)s1 [SNS-314] | > 30 µM (inactive) | > 30 µM (inactive) | > 30 µM (inactive) | > 30 µM (inactive) | > 30 µM (inactive) | > 30 µM (inactive) | > 30 µM (inactive) | –
13 | C1=C/COCc2cc(ccc2OCCN2CCCC2)Nc2nccc(n2)-c2cccc(c2)COC/1 [PACRITINIB] | > 30 µM (inactive) | > 30 µM (inactive) | – | > 30 µM (inactive) | > 30 µM (inactive) | > 30 µM (inactive) | > 30 µM (inactive) | > 30 µM (inactive)
14 | Cc1cn(-c2cc(NC(=O)c3ccc(C)c(Nc4nccc(-c5cccnc5)n4)c3)cc(C(F)(F)F)c2)cn1 [NILOTINIB] | – | > 30 µM (inactive) | – | > 30 µM (inactive) | – | – | – | –
15 | CN1N=C(N)c2cn([C@@H]3O[C@H](COP(=O)(O)O)[C@@H](O)[C@H]3O)c3ncnc1c23 [TRICIRIBINE PHOSPHATE] | > 30 µM (inactive) | > 30 µM (inactive) | > 30 µM (inactive) | > 30 µM (inactive) | – | > 30 µM (inactive) | > 30 µM (inactive) | > 30 µM (inactive)
16 | Cc1nc(N)sc1-c1ccnc(Nc2ccc(N3CCOCC3)cc2)n1 [CYC-116] | > 30 µM (inactive) | > 30 µM (inactive) | > 30 µM (inactive) | 0.716 µM | > 30 µM (inactive) | – | > 30 µM (inactive) | –
17 | Cc1c(F)cc(C(=O)NC2CC2)cc1-c1ccc(C(=O)NCC(C)(C)C)cn1 [LOSMAPIMOD] | > 30 µM (inactive) | > 30 µM (inactive) | – | > 30 µM (inactive) | > 30 µM (inactive) | > 30 µM (inactive) | > 30 µM (inactive) | > 30 µM (inactive)
18 | COc1cc(N2CCC(N3CCN(C)CC3)CC2)ccc1Nc1ncnc(Nc2ccccc2S(=O)(=O)C(C)C)n1 [ASP-3026] | > 30 µM (inactive) | – | – | – | 1.82 µM (active) | > 30 µM (inactive) | > 30 µM (inactive) | 9.72 µM (active)
19 | C[C@@H](Nc1cc(F)cc(F)c1)c1cc(C(=O)N(C)C)cc2c(=O)cc(N3CCOCC3)oc12 [AZD-8186] | > 30 µM (inactive) | > 30 µM (inactive) | – | > 30 µM (inactive) | > 30 µM (inactive) | > 30 µM (inactive) | > 30 µM (inactive) | > 30 µM (inactive)
